According to patent US20210070748A1, “INHIBITORS OF BRUTONS TYROSINE KINASE” (Pharmacyclics LLC, priority 2015, published 2021):

Legend:
Format in all cases: biochemical
LCK = LCK (Homo sapiens, UniProt P06239); assay: Inhibition of a panel of kinases, in vitro HotSpot kinase assay: LCK; conditions: D-compounds panel data; 1 μM ATP; read-out: IC50 LCK
ITK = molecular target: T1, ITK (Homo sapiens, UniProt Q08881); assay: Inhibition of a panel of kinases, in vitro HotSpot kinase assay: ITK; conditions: D-compounds panel data; 1 μM ATP
T1 sequence (Q08881 1-620): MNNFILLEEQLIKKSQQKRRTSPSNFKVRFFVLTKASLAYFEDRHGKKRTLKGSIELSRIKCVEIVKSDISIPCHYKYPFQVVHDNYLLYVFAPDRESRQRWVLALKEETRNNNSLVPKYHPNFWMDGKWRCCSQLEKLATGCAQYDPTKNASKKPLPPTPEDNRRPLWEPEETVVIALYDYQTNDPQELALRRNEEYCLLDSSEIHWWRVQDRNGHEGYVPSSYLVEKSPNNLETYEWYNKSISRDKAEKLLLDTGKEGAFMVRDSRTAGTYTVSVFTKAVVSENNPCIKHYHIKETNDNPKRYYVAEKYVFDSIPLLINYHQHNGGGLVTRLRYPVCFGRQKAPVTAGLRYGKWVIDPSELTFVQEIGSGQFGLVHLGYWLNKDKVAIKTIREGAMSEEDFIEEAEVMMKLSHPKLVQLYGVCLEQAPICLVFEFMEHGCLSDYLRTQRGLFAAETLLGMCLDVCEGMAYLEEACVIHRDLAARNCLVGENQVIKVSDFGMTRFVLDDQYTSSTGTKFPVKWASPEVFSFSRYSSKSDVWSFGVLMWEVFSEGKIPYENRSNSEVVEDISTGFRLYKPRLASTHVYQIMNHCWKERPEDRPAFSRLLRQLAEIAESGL
Protocol: (§1) The degree of inhibition of a panel of kinases is determined using the in vitro HotSpot kinase assay (purified enzymes, ^33P-ATP, an appropriate substrate and 1 μM ATP).

EGFR = EGFR (Homo sapiens, UniProt P00533); assay: Inhibition of a panel of kinases, in vitro HotSpot kinase assay: EGFR; conditions: D-compounds panel data; 1 μM ATP
Sequence of EGFR (P00533 25-1210): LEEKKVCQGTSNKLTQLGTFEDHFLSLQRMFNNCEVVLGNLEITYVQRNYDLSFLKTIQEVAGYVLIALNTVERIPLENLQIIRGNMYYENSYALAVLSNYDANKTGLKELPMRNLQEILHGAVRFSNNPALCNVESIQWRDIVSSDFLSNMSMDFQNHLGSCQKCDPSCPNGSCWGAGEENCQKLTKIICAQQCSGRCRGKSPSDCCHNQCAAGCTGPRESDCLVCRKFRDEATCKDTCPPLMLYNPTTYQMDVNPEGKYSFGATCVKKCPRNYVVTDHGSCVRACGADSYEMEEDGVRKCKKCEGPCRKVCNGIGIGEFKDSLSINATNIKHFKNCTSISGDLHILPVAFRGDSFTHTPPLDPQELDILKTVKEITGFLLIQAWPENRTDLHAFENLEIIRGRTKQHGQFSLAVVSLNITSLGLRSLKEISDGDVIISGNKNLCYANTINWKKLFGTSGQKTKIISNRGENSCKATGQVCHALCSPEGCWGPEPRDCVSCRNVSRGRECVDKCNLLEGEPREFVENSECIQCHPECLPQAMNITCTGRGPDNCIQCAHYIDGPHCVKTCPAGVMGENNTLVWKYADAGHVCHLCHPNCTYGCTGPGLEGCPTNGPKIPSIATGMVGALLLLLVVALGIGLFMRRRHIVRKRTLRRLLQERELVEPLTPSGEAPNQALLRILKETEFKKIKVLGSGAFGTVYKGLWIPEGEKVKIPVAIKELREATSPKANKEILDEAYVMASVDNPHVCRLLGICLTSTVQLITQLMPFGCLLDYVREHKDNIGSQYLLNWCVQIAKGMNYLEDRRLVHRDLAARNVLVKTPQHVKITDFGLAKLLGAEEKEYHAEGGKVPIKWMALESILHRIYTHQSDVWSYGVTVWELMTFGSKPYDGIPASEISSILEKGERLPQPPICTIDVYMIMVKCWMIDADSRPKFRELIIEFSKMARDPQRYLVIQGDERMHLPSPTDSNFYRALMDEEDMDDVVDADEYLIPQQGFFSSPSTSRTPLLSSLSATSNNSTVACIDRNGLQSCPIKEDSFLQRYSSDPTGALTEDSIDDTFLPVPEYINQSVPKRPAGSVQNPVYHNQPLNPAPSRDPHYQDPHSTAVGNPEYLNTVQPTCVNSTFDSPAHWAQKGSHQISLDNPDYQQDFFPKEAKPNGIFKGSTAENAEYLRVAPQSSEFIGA
Protocol: as §1

TEC = molecular target: T2, TEC (Homo sapiens, UniProt P42680); assay: Inhibition of a panel of kinases, in vitro HotSpot kinase assay: TEC; conditions: D-compounds panel data; 1 μM ATP
T2 sequence (P42680 1-631): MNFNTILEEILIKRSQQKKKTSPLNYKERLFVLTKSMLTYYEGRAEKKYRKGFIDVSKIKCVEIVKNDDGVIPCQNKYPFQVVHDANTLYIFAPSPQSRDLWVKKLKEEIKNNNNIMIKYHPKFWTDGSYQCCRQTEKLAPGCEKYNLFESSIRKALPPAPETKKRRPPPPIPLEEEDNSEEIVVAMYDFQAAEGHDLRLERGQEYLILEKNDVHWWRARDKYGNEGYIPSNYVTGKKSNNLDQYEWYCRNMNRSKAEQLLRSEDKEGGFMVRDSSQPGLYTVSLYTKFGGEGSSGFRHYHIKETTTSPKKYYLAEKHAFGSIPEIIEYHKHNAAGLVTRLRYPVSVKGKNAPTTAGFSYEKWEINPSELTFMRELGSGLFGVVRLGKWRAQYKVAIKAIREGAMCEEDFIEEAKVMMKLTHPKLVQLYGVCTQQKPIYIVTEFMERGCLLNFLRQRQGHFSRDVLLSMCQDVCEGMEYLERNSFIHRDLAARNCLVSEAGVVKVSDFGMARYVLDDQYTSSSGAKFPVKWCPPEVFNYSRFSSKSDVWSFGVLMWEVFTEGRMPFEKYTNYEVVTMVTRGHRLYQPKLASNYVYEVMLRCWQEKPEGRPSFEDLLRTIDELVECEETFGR
Protocol: as §1

Sequence of LCK (P06239 whole entry): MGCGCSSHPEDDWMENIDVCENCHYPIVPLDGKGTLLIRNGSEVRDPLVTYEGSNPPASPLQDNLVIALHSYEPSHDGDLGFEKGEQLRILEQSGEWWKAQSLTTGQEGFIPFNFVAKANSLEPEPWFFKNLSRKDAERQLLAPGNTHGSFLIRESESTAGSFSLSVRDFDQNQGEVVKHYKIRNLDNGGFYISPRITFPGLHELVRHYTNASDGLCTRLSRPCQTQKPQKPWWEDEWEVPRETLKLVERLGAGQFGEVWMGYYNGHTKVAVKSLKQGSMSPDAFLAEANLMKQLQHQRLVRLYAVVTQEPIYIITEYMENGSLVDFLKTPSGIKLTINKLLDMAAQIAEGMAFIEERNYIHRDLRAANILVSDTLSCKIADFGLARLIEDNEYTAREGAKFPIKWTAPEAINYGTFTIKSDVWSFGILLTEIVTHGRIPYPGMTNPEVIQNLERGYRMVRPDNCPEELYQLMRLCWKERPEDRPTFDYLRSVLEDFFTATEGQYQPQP

Structure (SMILES) | IC50 (LCK) [µM] | IC50 (ITK) [µM] | IC50 (EGFR) [µM] | IC50 (TEC) [µM]
CN(C)C(=O)N[C@@H]1CCCN(c2cnc(C(N)=O)c(Nc3ccc(C4(C)CCN(C5CCCC5)CC4)cc3)n2)[C@@H]1CO [Example D-58, 3-{[4-(1-cyclopentyl-4-methylpiperidin-4-yl)phenyl]amino}-5-[(2S,3R)-3-[(dimethylcarbamoyl)amino]-2-(hydroxymethyl)piperidin-1-yl]pyrazine-2-carboxamide] | 0.1 to 1 | 1 to 10 | 0.1 to 1 | 0.1 to 1
Cc1cc(Nc2nc(N3C[C@H](NC(=O)c4ccc(C5CC5)cc4F)CC[C@H]3C)cnc2C(N)=O)sn1 [Example D-79, 5-[(2R,5R)-5-(4-cyclopropyl-2-fluorobenzamido)-2-methylpiperidin-1-yl]-3-[(3-methyl-1,2-thiazol-5-yl)amino]pyrazine-2-carboxamide] | 1 to 10 | > 10 | 1 to 10 | > 10
Cc1cc(Nc2nc(N3C[C@H](NC(=O)N(C)C)CC[C@H]3C)cnc2C(N)=O)sn1 [Example D-77, 5-[(2R,5R)-5-[(dimethylcarbamoyl)amino]-2-methylpiperidin-1-yl]-3-[(3-methyl-1,2-thiazol-5-yl)amino]pyrazine-2-carboxamide] | 1 to 10 | > 10 | 1 to 10 | 1 to 10
Cc1cc(Nc2nc(N3CCC[C@@H](NC(=O)N(C)C)[C@H]3CO)cnc2C(N)=O)sn1 [Example D-67, 5-[(2S,3R)-3-[(dimethylcarbamoyl)amino]-2-(hydroxymethyl)piperidin-1-yl]-3-[(3-methyl-1,2-thiazol-5-yl)amino]pyrazine-2-carboxamide] | 0.1 to 1 | 1 to 10 | 0.1 to 1 | 0.1 to 1

Continued, values first:

IC50 (LCK) [µM] | IC50 (ITK) [µM] | IC50 (EGFR) [µM] | IC50 (TEC) [µM] | Structure (SMILES)
0.1 to 1 | 1 to 10 | 0.1 to 1 | 0.01 to 0.1 | Cn1cc(Nc2nc(N3CCC[C@@H]4[C@H]3CCCN4C(=O)c3ccc(C4CC4)cc3)cnc2C(N)=O)cn1 [Example D-46, 5-I[(4aR,8aR)-5-(4-cyclopropylbenzoyl)-decahydro-1,5-naphthyridin-1-yl]-3-[(1-methyl-1H-pyrazol-4-yl)amino]pyrazine-2-carboxamide]
0.1 to 1 | 0.1 to 1 | 1 to 10 | 0.01 to 0.1 | C[C@@H]1[C@H](NC(=O)N(C)C)CCCN1c1cnc(C(N)=O)c(Nc2cn[nH]c2)n1 [Example D-53, 5-[(2R,3R)-3-[(dimethylcarbamoyl)amino]-2-methylpiperidin-1-yl]-3-[(1H-pyrazol-4-yl)amino]pyrazine-2-carboxamide]
0.1 to 1 | 1 to 10 | 0.1 to 1 | 1 to 10 | Cc1cc(Nc2nc(N3C[C@@H](NC(=O)c4ccc(C5CC5)cc4F)CC[C@@H]3C)cnc2C(N)=O)sn1 [Example D-78, 5-[(2S,5S)-5-(4-cyclopropyl-2-fluorobenzamido)-2-methylpiperidin-1-yl]-3-[(3-methyl-1,2-thiazol-5-yl)amino]pyrazine-2-carboxamide]
0.1 to 1 | 0.1 to 1 | 1 to 10 | ≤ 0.01 | C[C@@H]1[C@H](NC(=O)c2ccc(N(C)C)cn2)CCCN1c1cnc(C(N)=O)c(Nc2cnn(C)c2)n1 [Example D-84, 5-[(2R,3R)-3-[5-(dimethylamino)pyridine-2-amido]-2-methylpiperidin-1-yl]-3-[(1-methyl-1H-pyrazol-4-yl)amino]pyrazine-2-carboxamide]
0.1 to 1 | 0.1 to 1 | 1 to 10 | 0.01 to 0.1 | C[C@@H]1[C@H](NC(=O)c2ccc(C(C)(C)CO)cc2)CCCN1c1cnc(C(N)=O)c(Nc2cnn(C)c2)n1 [Example D-94, 5-[(2R,3R)-3-[4-(1-hydroxy-2-methylpropan-2-yl)benzamido]-2-methylpiperidin-1-yl]-3-[(1-methyl-1H-pyrazol-4-yl)amino]pyrazine-2-carboxamide]
